In PMC8197369, “Scale-Up Preparation of Crocins I and II from Gardenia jasminoides by a Two-Step Chromatographic Approach and Their Inhibitory Activity Against ATP Citrate Lyase” (Molecules, 2021):

Biological target: T1, ATP citrate lyase (ACLY) (Homo sapiens, UniProt P53396)
T1 construct: ACLY (His)
T1 sequence (P53396 1-1101): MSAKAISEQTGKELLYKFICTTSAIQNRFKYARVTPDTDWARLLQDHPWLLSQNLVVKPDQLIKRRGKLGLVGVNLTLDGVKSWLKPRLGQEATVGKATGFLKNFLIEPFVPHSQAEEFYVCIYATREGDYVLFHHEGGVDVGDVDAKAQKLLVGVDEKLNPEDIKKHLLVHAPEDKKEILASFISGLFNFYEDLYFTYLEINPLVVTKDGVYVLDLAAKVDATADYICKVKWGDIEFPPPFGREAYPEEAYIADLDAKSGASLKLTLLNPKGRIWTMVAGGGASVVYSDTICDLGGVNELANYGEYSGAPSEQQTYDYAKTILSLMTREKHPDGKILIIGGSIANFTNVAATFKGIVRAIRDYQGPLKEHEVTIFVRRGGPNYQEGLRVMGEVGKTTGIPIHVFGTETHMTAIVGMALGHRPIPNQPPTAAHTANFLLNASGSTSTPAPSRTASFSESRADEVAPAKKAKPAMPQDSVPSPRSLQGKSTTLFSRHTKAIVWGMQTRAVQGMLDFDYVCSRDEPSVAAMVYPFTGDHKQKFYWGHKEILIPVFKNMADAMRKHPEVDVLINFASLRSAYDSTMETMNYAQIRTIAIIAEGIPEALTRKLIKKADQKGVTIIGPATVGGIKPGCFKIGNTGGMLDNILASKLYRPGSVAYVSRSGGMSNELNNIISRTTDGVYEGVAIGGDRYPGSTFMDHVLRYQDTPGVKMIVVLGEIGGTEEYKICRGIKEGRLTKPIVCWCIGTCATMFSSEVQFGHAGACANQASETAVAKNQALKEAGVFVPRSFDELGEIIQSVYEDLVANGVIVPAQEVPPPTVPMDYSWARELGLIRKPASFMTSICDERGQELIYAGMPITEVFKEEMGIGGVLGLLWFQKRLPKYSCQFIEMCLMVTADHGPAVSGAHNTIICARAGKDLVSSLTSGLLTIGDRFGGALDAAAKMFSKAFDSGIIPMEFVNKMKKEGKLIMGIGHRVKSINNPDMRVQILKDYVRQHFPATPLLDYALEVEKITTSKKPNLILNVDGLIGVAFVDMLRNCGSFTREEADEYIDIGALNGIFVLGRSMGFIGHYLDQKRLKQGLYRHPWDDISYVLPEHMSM
Experiment: ADP-Glo ADP-coupled enzymatic assay
Assay type: biochemical

| SMILES | IC50 [µM] |
| --- | --- |
| CC(/C=C/C=C(\C)C(=O)O[C@@H]1O[C@H](CO[C@@H]2O[C@H](CO)[C@@H](O)[C@H](O)[C@H]2O)[C@@H](O)[C@H](O)[C@H]1O)=C\C=C\C=C(C)\C=C\C=C(/C)C(=O)O[C@@H]1O[C@H](CO[C@@H]2O[C@H](CO)[C@@H](O)[C@H](O)[C@H]2O)[C@@H](O)[C@H](O)[C@H]1O [compound 1, crocin I] | 36.3 ± 6.24 |
| CC(/C=C/C=C(\C)C(=O)O[C@@H]1O[C@H](CO)[C@@H](O)[C@H](O)[C@H]1O)=C\C=C\C=C(C)\C=C\C=C(/C)C(=O)O[C@@H]1O[C@H](CO[C@@H]2O[C@H](CO)[C@@H](O)[C@H](O)[C@H]2O)[C@@H](O)[C@H](O)[C@H]1O [compound 2, crocin II] | 29.7 ± 7.41 |
